Starred links: 1 amine or outer side, 2 acyl side, 3 side chain; linkers in the order of their positions; H or OH if unused. Positions of bridges follow the written chain, without caps; N, C: chain ends. Non-standard residues stand in square brackets, D forms with d. Residues, ends and D or L forms follow the SMILES beside them. ξ: configuration not given here. *: point of attachment. Hexadecanesulfonyl = CCCCCCCCCCCCCCCCS(=O)(=O)*; ξAbu(3ξ-NHCOCH2NH2) = CC(NC(=O)CN)C(N)C(=O)O; ξAbu(βξ-NH2) = CC(N[*:3])C(N[*:1])C(=O)[*:2]; X8 = O=C(/C=C/c1ccc(N[*:1])cc1)[*:2]; ξAsp(βξ-Me) = CC(C(=O)O)C(N)C(=O)O; X1 = O=C(Cc1ccc(N[*:1])cc1)[*:2]; Myristoyl = CCCCCCCCCCCCCC(=O)*; ξAbu(3ξ-NH2) = CC(N)C(N)C(=O)O; Lauroyl = CCCCCCCCCCCC(=O)*; X19 = CCCCCCCCCCS(=O)(=O)*; 4Abz = Nc1ccc(C(=O)O)cc1; Pip = O=C(O)[CH]1CCCCN1; ξD = NC(CC(=O)O)C(=O)O; ξPip = O=C(O)C1CCCCN1; ξV = CC(C)C(N)C(=O)O; ξP = O=C(O)C1CCCN1

For one experiment, the system named is Staphylococcus aureus (MSSA). The following applies: 24 h. How it is done:
(“Approved Standard M7-A3”).
The antimicrobial lipopeptide derivatives described herein were tested for antimicrobial activity against Gram-positive bacteria as follows. The minimum inhibitory concentrations (MIC) of the antimicrobial lipopeptide derivatives of the invention were determined using NCCLS guidelines M7-A6 (2003) with a slight modification in that doubling serial dilutions were used to dilute the test compounds. The broth phase microdilution method was used. Isolated colonies of Staphylococcus aureus (MSSA) from an 18-24 hour blood agar plate cultures were used to inoculate cation adjusted Mueller-Hinton broth (CAMHB) supplemented with 0.625 mM calcium. […] A negative control containing media alone and a positive growth control containing bacteria with media alone were also included. MICs were determined after incubating the plates at about 37° C. for 24 hours. […] In Tables 1 to 16, R is the core cyclic peptide of amphomycin or aspartocin, which can be in the form of a β-isomer, an anhydro, a dianhydro, or any combination thereof. […] Furthermore, a person of skill in the art will appreciate that all the pounds, or groups of compounds, derived from the various combinations of and substituents shown in Tables 1 to 16, are disclosed by the present the same extent as if each compound or group of compounds was set forth individually.
With `CCCCCCCCCCCCCCC(=O)NC(CC(=O)O)C(=O)NC1C(=O)N2CCCCC2C(=O)NC(C(C)C(=O)O)C(=O)NC(CC(=O)O)C(=O)NCC(=O)NC(CC(=O)O)C(=O)NCC(=O)NC(C(C)NC(=O)CCCNC(=O)CCCCCN)C(=O)NC(C(C)C)C(=O)N2CCCC2C(=O)NC1C` (stereo not shown) [Compound 72, C15-Amphomycin-9-GABA-Ahx], the MIC (usually the least concentration at which growth counts as inhibited) is 8 µg/mL.

In the case of `CCCCCCCCCCCCCCC(=O)NC(CC(=O)O)C(=O)NC1C(=O)N2CCCCC2C(=O)NC(C(C)C(=O)O)C(=O)NC(CC(=O)O)C(=O)NCC(=O)NC(CC(=O)O)C(=O)NCC(=O)NC(C(C)NC(=O)CNC(=O)CCCCC)C(=O)NC(C(C)C)C(=O)N2CCCC2C(=O)NC1C` (stereo not shown) [Compound 81, C15-Amphomycin-9-Gly-C6], the MIC amounted to 32 µg/mL.

On to `CCCCCCCCCCCCCCC(=O)NC(CC(=O)O)C(=O)NC1C(=O)N2CCCCC2C(=O)NC(C(C)C(=O)O)C(=O)NC(CC(=O)O)C(=O)NCC(=O)NC(CC(=O)O)C(=O)NCC(=O)NC(C(C)NC(=O)[C@H](C)N)C(=O)NC(C(C)C)C(=O)N2CCCC2C(=O)NC1C` (stereo partly shown) [Compound 82, C15-Amphomycin-9-Ala], for which the MIC worked out at 2 µg/mL.

As to `CCCCCCCCCCCCCCCCNC(=O)NC(CC(=O)O)C(=O)NC1C(=O)N2CCCCC2C(=O)NC(C(C)C(=O)O)C(=O)NC(CC(=O)O)C(=O)NCC(=O)NC(CC(=O)O)C(=O)NCC(=O)NC(C(C)NC(=O)CN)C(=O)NC(C(C)C)C(=O)N2CCCC2C(=O)NC1C` (stereo not shown) [Compound 83, CH3—(CH2)15—NH—C(═O)-Amphomycin-9-Gly], the MIC was determined as 2 µg/mL.

Consider `CCCCCCCCCCCCCCCCS(=O)(=O)NC(CC(=O)O)C(=O)NC1C(=O)N2CCCCC2C(=O)NC(C(C)C(=O)O)C(=O)NC(CC(=O)O)C(=O)NCC(=O)NC(CC(=O)O)C(=O)NCC(=O)NC(C(C)NC(=O)CN)C(=O)NC(C(C)C)C(=O)N2CCCC2C(=O)NC1C` (stereo not shown) [Compound 84, CH3—(CH2)15—SO2-Amphomycin-9-Gly], for which the MIC is 2 to 4 µg/mL.

Regarding `CCCCCCCCCCCC(=O)Nc1ccc(CC(=O)NC(CC(=O)O)C(=O)NC2C(=O)N3CCCCC3C(=O)NC(C(C)C(=O)O)C(=O)NC(CC(=O)O)C(=O)NCC(=O)NC(CC(=O)O)C(=O)NCC(=O)NC(C(C)NC(=O)CN)C(=O)NC(C(C)C)C(=O)N3CCCC3C(=O)NC2C)cc1` (stereo not drawn) [Compound 86, C12-(p-Apa)-Amphomycin-9-Gly] (Lauroyl-[X1]D[ξAbu(βξ-NH2)][Pip][ξAsp(βξ-Me)]DGDG[ξAbu(3ξ-NHCOCH2NH2)]VP; lactam 3-C; configuration not given here), the MIC was determined as 0.25 µg/mL.

`CCCCCCCCCCCC(=O)Nc1ccc(C(=O)NC(CC(=O)O)C(=O)NC2C(=O)N3CCCCC3C(=O)NC(C(C)C(=O)O)C(=O)NC(CC(=O)O)C(=O)NCC(=O)NC(CC(=O)O)C(=O)NCC(=O)NC(C(C)NC(=O)CN)C(=O)NC(C(C)C)C(=O)N3CCCC3C(=O)NC2C)cc1` (stereo not shown) [Compound 87, C12-PABA-Amphomycin-9-Gly]: the MIC is 0.25 to 0.5 µg/mL.

Consider `CCCCCCCCCCCC(=O)Nc1ccc(/C=C/C(=O)NC(CC(=O)O)C(=O)NC2C(=O)N3CCCCC3C(=O)NC(C(C)C(=O)O)C(=O)NC(CC(=O)O)C(=O)NCC(=O)NC(CC(=O)O)C(=O)NCC(=O)NC(C(C)NC(=O)CN)C(=O)NC(C(C)C)C(=O)N3CCCC3C(=O)NC2C)cc1` (stereo not drawn) [Compound 89, C12-(p-Trans-Cinnamyl)-Amphomycin-9-Gly] (Lauroyl-[X8]D[ξAbu(βξ-NH2)][Pip][ξAsp(βξ-Me)]DGDG[ξAbu(3ξ-NHCOCH2NH2)]VP; lactam 3-C; configuration not given here), for which the MIC is 0.5 to 1 µg/mL.

With `CCCCCCCCCCCCCC(=O)Nc1ccc(C(=O)NCC(=O)NC(CC(=O)O)C(=O)NC2C(=O)N3CCCCC3C(=O)NC(C(C)C(=O)O)C(=O)NC(CC(=O)O)C(=O)NCC(=O)NC(CC(=O)O)C(=O)NCC(=O)NC(C(C)NC(=O)CN)C(=O)NC(C(C)C)C(=O)N3CCCC3C(=O)NC2C)cc1` (stereo not drawn) [Compound 91, C14-PABA-Gly-Amphomycin-9-Gly] ({Myristoyl-4Abz}-GD[ξAbu(βξ-NH2)][Pip][ξAsp(βξ-Me)]DGDG[ξAbu(3ξ-NHCOCH2NH2)]VP; lactam 3-C; configuration not given here), the MIC is 2 µg/mL.

Take `CCCCCCCCCCCCCCC(=O)NC(CC(=O)O)C(=O)NC1C(=O)N2CCCCC2C(=O)NC(C(C)C(=O)O)C(=O)NC(CC(=O)O)C(=O)NCC(=O)NC(CC(=O)O)C(=O)NCC(=O)NC(C(C)NC(=O)CCCCCNC(=O)CN)C(=O)NC(C(C)C)C(=O)N2CCCC2C(=O)NC1C` (stereo not shown) [Compound 93, C15-Amphomycin-9-Ahx-Gly]: the MIC worked out at 4 µg/mL.

For `CCCCCCCCCCCCCCC(=O)NC(CC(=O)O)C(=O)NC1C(=O)N2CCCCC2C(=O)NC(C(C)C(=O)O)C(=O)NC(CC(=O)O)C(=O)NCC(=O)NC(CC(=O)O)C(=O)NCC(=O)NC(C(C)NC(=O)CCCNC(=O)CCCN)C(=O)NC(C(C)C)C(=O)N2CCCC2C(=O)NC1C` (stereo not shown) [Compound 94, C15-Amphomycin-9-GABA-GABA], the MIC worked out at 2 µg/mL.

Take `CCCCCCCCCCCCCCC(=O)NC(CC(=O)O)C(=O)NC1C(=O)N2CCCCC2C(=O)NC(C(C)C(=O)O)C(=O)NC(CC(=O)O)C(=O)NCC(=O)NC(CC(=O)O)C(=O)NCC(=O)NC(C(C)NC(=O)[C@@H]2CCCCN2)C(=O)NC(C(C)C)C(=O)N2CCCC2C(=O)NC1C` (stereo partly shown) [Compound 95, C15-Amphomycin-9-hPro]: the minimum inhibitory concentration (MIC) worked out at 2 µg/mL.

For the compound `CCCCCCCCCCCCCCC(=O)NC(CC(=O)O)C(=O)NC1C(=O)N2CCCCC2C(=O)NC(C(C)C(=O)O)C(=O)NC(CC(=O)O)C(=O)NCC(=O)NC(CC(=O)O)C(=O)NCC(=O)NC(C(C)NC(=O)[C@H]2CCCCN2)C(=O)NC(C(C)C)C(=O)N2CCCC2C(=O)NC1C` (stereo partly drawn) [Compound 96, C15-Amphomycin-9-(D-Pip)], the MIC came out at 1 µg/mL.

As for `CCCCCCCCCCCCCCCCS(=O)(=O)NCC(=O)NC(CC(=O)O)C(=O)NC1C(=O)N2CCCCC2C(=O)NC(C(C)C(=O)O)C(=O)NC(CC(=O)O)C(=O)NCC(=O)NC(CC(=O)O)C(=O)NCC(=O)NC(C(C)N)C(=O)NC(C(C)C)C(=O)N2CCCC2C(=O)NC1C` (stereo not drawn) [Compound 99, CH3—(CH2)15—SO2-Gly-Amphomycin] (Hexadecanesulfonyl-GD[ξAbu(βξ-NH2)][Pip][ξAsp(βξ-Me)]DGDG[ξAbu(3ξ-NH2)]VP; lactam 3-C; configuration not given here), the minimal inhibitory concentration (MIC) lay within 0.5 to 1 µg/mL.

`CCCCCCCCCCS(=O)(=O)N[C@@H](Cc1ccccc1)C(=O)NC(CC(=O)O)C(=O)NC1C(=O)N2CCCCC2C(=O)NC(C(C)C(=O)O)C(=O)NC(CC(=O)O)C(=O)NCC(=O)NC(CC(=O)O)C(=O)NCC(=O)NC(C(C)N)C(=O)NC(C(C)C)C(=O)N2CCCC2C(=O)NC1C` (stereo partly drawn) [Compound 100, CH3—(CH2)9—SO2-Phe-Amphomycin] (X19-F[ξD][ξAbu(βξ-NH2)][ξPip][ξAsp(βξ-Me)][ξD]G[ξD]G[ξAbu(3ξ-NH2)][ξV][ξP]; lactam 3-C): the MIC came out at 4 µg/mL.

Still in this experiment, the particulars now being: S. aureus (MSSA), CAMHB supplemented with 0.625 mM calcium, 24 hours at about 37° C.; a range = compound tested multiple times.
On to `CCCCCCCCCCCC(=O)NC(CC(=O)O)C(=O)NC1C(=O)N2CCCCC2C(=O)NC(C(C)C(=O)O)C(=O)NC(CC(=O)O)C(=O)NCC(=O)NC(CC(=O)O)C(=O)NCC(=O)NC(C(C)NC(=O)CCN)C(=O)NC(C(C)C)C(=O)N2CCCC2C(=O)NC1C` (stereo not drawn) [Compound 73, C12-Amphomycin-9-(β-Ala)], for which the MIC is on record as 73/2-4 μg/mL.

Regarding `CCCCCCCCCCCC(=O)NC(CC(=O)O)C(=O)NC1C(=O)N2CCCCC2C(=O)NC(C(C)C(=O)O)C(=O)NC(CC(=O)O)C(=O)NCC(=O)NC(CC(=O)O)C(=O)NCC(=O)NC(C(C)NC(=O)CNC)C(=O)NC(C(C)C)C(=O)N2CCCC2C(=O)NC1C` (stereo not shown) [Compound 74, C12-Amphomycin-9-Sar], the MIC was 74/4 μg/mL.

For the compound `CCCCCCCCCCCCCCCC(=O)NC(CC(=O)O)C(=O)NC1C(=O)N2CCCCC2C(=O)NC(C(C)C(=O)O)C(=O)NC(CC(=O)O)C(=O)NCC(=O)NC(CC(=O)O)C(=O)NCC(=O)NC(C(C)NC(=O)CNC)C(=O)NC(C(C)C)C(=O)N2CCCC2C(=O)NC1C` (stereo not shown) [Compound 75, C16-Amphomycin-9-Sar], the MIC is given as 75/1 μg/mL.

For `CCCCCCCCCC(=O)NC(CC(=O)O)C(=O)NC1C(=O)N2CCCCC2C(=O)NC(C(C)C(=O)O)C(=O)NC(CC(=O)O)C(=O)NCC(=O)NC(CC(=O)O)C(=O)NCC(=O)NC(C(C)NC(=O)CCN)C(=O)NC(C(C)C)C(=O)N2CCCC2C(=O)NC1C` (stereo not drawn) [Compound 76, C10-Amphomycin-9-(β-Ala)], the MIC is recorded as 76/16 μg/mL.

For the compound `CCCCCCCCCC(=O)NC(CC(=O)O)C(=O)NC1C(=O)N2CCCCC2C(=O)NC(C(C)C(=O)O)C(=O)NC(CC(=O)O)C(=O)NCC(=O)NC(CC(=O)O)C(=O)NCC(=O)NC(C(C)NC(=O)CNC)C(=O)NC(C(C)C)C(=O)N2CCCC2C(=O)NC1C` (stereo not shown) [Compound 77, C10-Amphomycin-9-Sar], the MIC is on record as 77/32 μg/mL.

Turning to `CCCCCCCCCCCCCCCCC(=O)NC(CC(=O)O)C(=O)NC1C(=O)N2CCCCC2C(=O)NC(C(C)C(=O)O)C(=O)NC(CC(=O)O)C(=O)NCC(=O)NC(CC(=O)O)C(=O)NCC(=O)NC(C(C)NC(=O)CNC)C(=O)NC(C(C)C)C(=O)N2CCCC2C(=O)NC1C` (stereo not shown) [Compound 78, C17-Amphomycin-9-Sar], the MIC was 78/1 μg/mL.

Consider `CCCCCCCCCCCCCCCC(=O)NC(CC(=O)O)C(=O)NC1C(=O)N2CCCCC2C(=O)NC(C(C)C(=O)O)C(=O)NC(CC(=O)O)C(=O)NCC(=O)NC(CC(=O)O)C(=O)NCC(=O)NC(C(C)NC(=O)CCN)C(=O)NC(C(C)C)C(=O)N2CCCC2C(=O)NC1C` (stereo not drawn) [Compound 79, C16-Amphomycin-9-(β-Ala)], for which the MIC is listed as 79/1 μg/mL.

Values taken from patent US7868135B2, “Compositions of lipopeptide antibiotic derivatives and methods of use thereof” (priority 2003, dated 2011).
